The text below walks through data of patent US10982284B2, “Compositions and methods APC, CREB, and BAD pathways to assess and affect cancer” (H. Lee Moffitt Cancer Center and Research Institute, Inc., priority 2011, dated 2021).

The structures appear in SMILES notation.

Holding throughout (experiment): CellTiter-Blue cell viability assay
Holding throughout (type): cell-based, human
For orientation: Alamar Blue is a resazurin reagent that responds to reducing activity.

The subject of one test is HeyA8. Particulars: HeyA8 ovarian cancer cell line, 72 hours, 50% reduction in growth/viability. An excerpt:
(§1) Ovarian cancer cell lines were obtained from the American Type Culture Collection (Manassas, Va.) (CAOV3, OV90, OVCAR3, SKOV3, TO[…]); from the European Collection of Cell Cultures, Salisbury, UK (A2780CP, A2780S); or from Kyoto University, Kyoto, Japan ([…], Tyknu, and TyknuC is R) or were kind gifts from Dr. Patricia Kruk, Department of Pathology, College of Medicine, University of South Florida, Tampa, Fla., and Susan Murphy, PhD, Dept of OBGYN/Division of GYN Oncology, Duke University, Durham, N.C. […] Cell lines were maintained in RPMI-1640 (Invitrogen, Carlsbad, Calif.) supplemented with 10% fetal bovine serum (Fisher Scientific, Pittsburgh, Pa.), 1% sodium pyruvate, 1% penicillin/streptomycin (Cellgro, Manassas, Va.), and 1% nonessential amino acids (HyClone, Hudson, N.H.). Mycoplasma testing was performed every 6 months following manufacturer's protocol (Lonza, Rockland, Me.). Drug activity was evaluated using a high-throughput CellTiter-Blue cell viability assay. […] After cell adherence, increasing concentrations of cisplatin, carboplatin (Sigma-Aldrich, St. Louis, Mo.), paclitaxel (Sequoia Research Products Ltd., Pangbourne, UK), or carboplatin plus paclitaxel (carbotaxol: constant molar ratio of carboplatin to paclitaxel of 20,000:1) were added to appropriate wells using an automated pipetting station. Four replicate wells were used for each drug concentration and vehicle controls. […] The cells were incubated with the drug for 72 hours, and 5 μL of CellTiter-Blue reagent (Promega Corp) was added to each well. Fluorescence was read at […] using a Synergy 4 microplate reader (Bio-Tek Instruments, Inc., Winooski, Vt.).

For a further test, the system named is SK-OV-4. Particulars: SK-OV-4 ovarian cancer cell line, 72 hours, 50% reduction in growth/viability.
Description: as §1

In another test the test system is OVCAR8. Particulars: OVCAR8 ovarian cancer cell line, 72 hours, 50% reduction in growth/viability.
Description: as §1

A further test concerns SKOV3. Particulars: SKOV3 ovarian cancer cell line, 72 hours, 50% reduction in growth/viability.
Description: as §1

Another test concerns OV2008. Particulars: OV2008 ovarian cancer cell line, 72 hours, 50% reduction in growth/viability.
Description: as §1

The test system of another test is OVCAR2. Particulars: OVCAR2 ovarian cancer cell line, 72 hours, 50% reduction in growth/viability.
Description: as §1

The test system of the next test is IGR-OV1. Particulars: IGR-OV1 ovarian cancer cell line, 72 hours, 50% reduction in growth/viability.
Description: as §1

A further test relates to OVCAR10. Particulars: OVCAR10 ovarian cancer cell line, 72 hours, 50% reduction in growth/viability.
Description: as §1

Another test deals with A2008. Particulars: A2008 ovarian cancer cell line, 72 hours, 50% reduction in growth/viability.
Description: as §1

A further test relates to TyknuCisR. Particulars: TyknuCisR ovarian cancer cell line, 72 hours, 50% reduction in growth/viability.
Description: as §1

The test system of a further test is OVCA429. Particulars: OVCA429 ovarian cancer cell line, 72 hours, 50% reduction in growth/viability.
Description: as §1

The test system of the next test is Tyknu. Particulars: Tyknu ovarian cancer cell line, 72 hours, 50% reduction in growth/viability.
Description: as §1

The test system of a further test is CAOV2. Particulars: CAOV2 ovarian cancer cell line, 72 hours, 50% reduction in growth/viability.
Description: as §1

A further test has as its system TOV112D. Particulars: TOV112D ovarian cancer cell line, 72 hours, 50% reduction in growth/viability.
Description: as §1

The subject of the next test is CHI. Particulars: CHI ovarian cancer cell line, 72 hours, 50% reduction in growth/viability.
Description: as §1

A further test has as its system CAOV3. Particulars: CAOV3 ovarian cancer cell line, 72 hours, 50% reduction in growth/viability.
Description: as §1

Another test concerns C13. Particulars: C13 ovarian cancer cell line, 72 hours, 50% reduction in growth/viability.
Description: as §1

The subject of the next test is Ovary1847. Particulars: Ovary1847 ovarian cancer cell line, 72 hours, 50% reduction in growth/viability.
Description: as §1

A further test deals with OVCAR5. Particulars: OVCAR5 ovarian cancer cell line, 72 hours, 50% reduction in growth/viability.
Description: as §1

A further test relates to OVCA420. Particulars: OVCA420 ovarian cancer cell line; 72 hours; 50% reduction in growth/viability.
Description: as §1

For another test, the system named is IMCC3. Particulars: IMCC3 ovarian cancer cell line; 72 hours; 50% reduction in growth/viability.
Description: as §1

For the compound `CC(=O)O[C@H]1C(=O)[C@@]2(C)[C@H]([C@H](OC(=O)c3ccccc3)[C@]3(O)C[C@H](OC(=O)[C@H](O)[C@@H](NC(=O)c4ccccc4)c4ccccc4)C(C)=C1C3(C)C)[C@]1(OC(C)=O)CO[C@@H]1C[C@@H]2O` [Paclitaxel, paclitaxel], the IC50 (usually the concentration that gives 50% inhibition) is 0.0174 µM with HeyA8 (Homo sapiens, HEY A8); 0.0023 µM with SK-OV-4 (Homo sapiens); 0.0057 µM in the test with OVCAR8 (Homo sapiens, OVCAR-8); 0.0887 µM in the test with SKOV3 (Homo sapiens, SK-OV-3); 0.0139 µM with OV2008 (Homo sapiens); 0.0028 µM with OVCAR2 (Homo sapiens). Besides, the IC50 was 0.0374 µM in the test with IGR-OV1 (Homo sapiens, IGROV-1); 0.0071 µM with OVCAR10 (Homo sapiens); 0.0058 µM in the test on A2008 (Homo sapiens); 0.0072 µM in the test on TyknuCisR (Homo sapiens); 0.0029 µM in the test with OVCA429 (Homo sapiens); 0.0083 µM in the test on Tyknu (Homo sapiens). Besides, the IC50 with CAOV2 (Homo sapiens) was found to be 0.0204 µM; in the test on TOV112D (Homo sapiens), 0.111 µM; in the test on CHI (Homo sapiens) it was 0.000999 µM; with CAOV3 (Homo sapiens, Caov-3), 0.0046 µM; in the test with C13 (Homo sapiens), 0.0032 µM; in the test with Ovary1847 (Homo sapiens) it was 0.0056 µM. The IC50 in the test on OVCAR5 (Homo sapiens, OVCAR-5) amounted to 0.0056 µM.
For `N.N.O=C([O-])C1(C(=O)[O-])CCC1.[Pt+2]` [Carboplatin, carboplatin], the IC50 in the test with HeyA8 was determined as 291 µM; in the test with SK-OV-4, 23 µM; in the test on OVCAR8, 56.1 µM; in the test with SKOV3, 247 µM; in the test with OV2008, 45.1 µM; in the test with OVCA420, 166 µM. The IC50 with OVCAR2 came out at 45.5 µM; in the test with IGR-OV1, 65.4 µM; in the test on OVCAR10, 128 µM; with A2008, 20.2 µM; with TyknuCisR it was 63.7 µM; in the test with OVCA429 it was 225 µM. In addition, the IC50 amounted to 9.6 µM with Tyknu; 70.2 µM in the test with CAOV2; 75.8 µM in the test with TOV112D; 23.6 µM in the test on CHI; 69.4 µM in the test with CAOV3; 56.8 µM with C13. In addition, the IC50 in the test on Ovary1847 is 172 µM; with IMCC3 it was 69.5 µM; in the test on OVCAR5 it was 125 µM.
